{"source": "patent US10039756B2", "about": "“Reducing memory loss in mammals suffering from alzheimer's disease” (The Penn State Research Foundation, priority 2013, dated 2018)", "key": {"human GAT-2 polypeptide": {"molecular_target": "T1, human GAT-2 polypeptide (Homo sapiens, UniProt Q9NSD5)", "T1 sequence (Q9NSD5 1-602)": "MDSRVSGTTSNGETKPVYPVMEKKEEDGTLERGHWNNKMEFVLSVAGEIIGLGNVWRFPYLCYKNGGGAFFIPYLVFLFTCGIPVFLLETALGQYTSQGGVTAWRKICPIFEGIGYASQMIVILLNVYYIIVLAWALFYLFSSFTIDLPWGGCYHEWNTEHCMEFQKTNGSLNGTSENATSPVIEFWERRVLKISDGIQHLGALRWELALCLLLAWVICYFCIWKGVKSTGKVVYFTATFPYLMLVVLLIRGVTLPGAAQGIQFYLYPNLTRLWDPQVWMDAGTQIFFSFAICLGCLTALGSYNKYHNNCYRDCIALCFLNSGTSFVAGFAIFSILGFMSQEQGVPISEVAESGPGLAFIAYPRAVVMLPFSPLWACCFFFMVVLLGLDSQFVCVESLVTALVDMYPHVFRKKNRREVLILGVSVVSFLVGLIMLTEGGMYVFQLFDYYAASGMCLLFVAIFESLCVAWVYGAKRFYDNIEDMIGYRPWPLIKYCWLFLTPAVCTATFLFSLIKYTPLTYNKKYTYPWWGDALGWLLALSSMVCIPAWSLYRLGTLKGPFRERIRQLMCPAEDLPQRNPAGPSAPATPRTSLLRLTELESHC", "conditions": "cited from earlier work"}, "human GAT-3 polypeptide": {"molecular_target": "T2, human GAT-3 polypeptide (Homo sapiens, UniProt P48066)", "T2 sequence (P48066 1-632)": "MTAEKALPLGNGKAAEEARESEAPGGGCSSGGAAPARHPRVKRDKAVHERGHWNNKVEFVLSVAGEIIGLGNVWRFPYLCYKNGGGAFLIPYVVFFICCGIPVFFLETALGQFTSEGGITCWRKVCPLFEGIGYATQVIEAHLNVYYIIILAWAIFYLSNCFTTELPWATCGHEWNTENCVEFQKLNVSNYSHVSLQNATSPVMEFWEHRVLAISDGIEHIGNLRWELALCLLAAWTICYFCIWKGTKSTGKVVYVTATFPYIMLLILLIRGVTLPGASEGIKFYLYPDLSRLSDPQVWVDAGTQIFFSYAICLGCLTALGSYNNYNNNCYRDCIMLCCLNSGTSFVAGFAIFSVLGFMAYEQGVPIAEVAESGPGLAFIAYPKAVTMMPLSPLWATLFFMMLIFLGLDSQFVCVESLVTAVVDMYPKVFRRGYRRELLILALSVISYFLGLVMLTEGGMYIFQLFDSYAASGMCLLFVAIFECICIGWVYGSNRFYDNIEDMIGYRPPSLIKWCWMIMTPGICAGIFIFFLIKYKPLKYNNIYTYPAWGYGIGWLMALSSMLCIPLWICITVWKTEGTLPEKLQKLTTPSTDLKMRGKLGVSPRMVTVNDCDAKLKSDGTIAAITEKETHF", "conditions": "cited from earlier work"}, "human GAT-1 polypeptide": {"molecular_target": "human GAT-1 polypeptide (Homo sapiens, UniProt P30531)", "sequence (P30531 whole entry)": "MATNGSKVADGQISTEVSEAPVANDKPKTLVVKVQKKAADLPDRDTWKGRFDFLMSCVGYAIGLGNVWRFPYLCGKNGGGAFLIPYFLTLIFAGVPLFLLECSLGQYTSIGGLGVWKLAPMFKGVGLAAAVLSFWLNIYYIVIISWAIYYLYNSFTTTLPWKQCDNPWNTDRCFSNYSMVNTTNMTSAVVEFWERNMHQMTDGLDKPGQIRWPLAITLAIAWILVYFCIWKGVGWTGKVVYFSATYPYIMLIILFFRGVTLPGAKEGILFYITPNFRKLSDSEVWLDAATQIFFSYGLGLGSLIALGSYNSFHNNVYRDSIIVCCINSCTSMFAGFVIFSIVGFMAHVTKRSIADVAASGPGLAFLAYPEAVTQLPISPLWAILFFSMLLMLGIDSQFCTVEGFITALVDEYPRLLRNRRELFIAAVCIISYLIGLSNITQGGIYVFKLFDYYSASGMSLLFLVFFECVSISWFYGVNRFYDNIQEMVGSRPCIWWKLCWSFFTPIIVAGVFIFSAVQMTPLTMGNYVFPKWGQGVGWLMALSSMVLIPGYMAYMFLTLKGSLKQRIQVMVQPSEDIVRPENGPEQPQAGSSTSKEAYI", "conditions": "cited from earlier work"}, "[1]": {"molecular_target": "T3, neuronal GABA transporters (Mus musculus, UniProt P31648)", "T3 construct": "from tissue; host or cells: mouse hippocampal slices, dentate granule cells", "assay": "Tonic current induced by blockade of neuronal GABA transporters in dentate granule cells", "assay_type": "cell-based", "conditions": "P>0.4", "description": "FIG. 7, panel a, contains typical traces showing tonic current induced by blockade of neuronal GABA transporters with NO-711 (1-[2-[[(Diphenylmethylene)imino]oxy]ethyl]-1,2,5,6-tetrahydro-3-pyridinecarboxylic acid hydrochloride hydrochloride). Large mIPSCs were truncated to better illustrate the tonic current.\nMice were anesthetized with 2.5% Avertin. After decapitation, brains were rapidly dissected out and placed in ice-cold cutting solution containing: 79 mM NaCl, 80 mM sucrose, 26 mM NaHCO3, 10 mM glucose, 2.5 mM KCl, 1.25 mM NaH2PO4, 7 mM MgSO4, and 0.5 mM CaCl2 for tonic current recordings. […]\n(§1) Whole-cell voltage clamp recordings were performed on dentate gyrus granule cells using a pipette solution containing: 135 mM CsCl, 5 mM Na-phosphocreatine, 10 mM HEPES, 5 mM EGTA, 4 mM MgATP, 5 mM QX-314, and 0.5 mM Na2GTP (pH 7.3 adjusted with CsOH, 280-290 mOsm/L). […] Data was acquired using pClamp 9 software (Molecular Devices; sampled at 10 kHz and filtered at 1 kHz), and analyzed with Clampfit 9.0 software (Molecular Devices). Field excitatory postsynaptic potentials (fEPSPs) were recorded with glass electrodes filled with 1 M NaCl and 25 mM HEPES (pH 7.3), and were evoked every 20 seconds with a parallel bipolar tungsten electrode (MicroProbes, USA), which was placed at medial perforant path in the dentate gyrus. […]"}, "LTP in DG": {"test_system": "LTP in DG", "assay": "Long-term potentiation (LTP) in dentate gyrus, hippocampal slice field EPSP recordings", "assay_type": "cell-based, mouse", "conditions": "100 nM; 5xFAD dentate granule cells", "description": "(§2) Mice were anesthetized with 2.5% Avertin. After decapitation, brains were rapidly dissected out and placed in ice-cold cutting solution containing: 79 mM NaCl, 80 mM sucrose, 26 mM NaHCO3, 10 mM glucose, 2.5 mM KCl, 1.25 mM NaH2PO4, 7 mM MgSO4, and 0.5 mM CaCl2 for tonic current recordings. The cutting solution for field EPSP recordings contained: 230 mM sucrose, 26 mM NaHCO3, 20 mM glucose, 2.5 mM KCl, 1.25 mM NaH2PO4, 10 mM MgSO4, and 0.5 mM CaCl2. Both solutions were bubbled with 95% O2/5% CO2. […]\nas §1"}, "5xFAD mice": {"test_system": "5xFAD mice", "assay": "Y-maze spontaneous alternation task", "assay_type": "in vivo, mouse", "conditions": "1 mg kg-1, i.p., once per day for one week, p<0.05", "description": "L-655,708 was dissolved at 1 mg/mL in DMSO, and frozen in storage aliquots. The working solution was diluted 10 times in normal saline solution. […] The last injection was administrated 30 minutes before behavioral test.\nSpontaneous alternation performance was tested as described elsewhere (Oakley et al., J. Neurosci., 26(40):10129-10140 (2006)). […] It allows the assessment of hippocampus-dependent spatial working memory. Each mouse was placed in the center of a symmetrical Y-maze and was allowed to explore freely through the maze during an 8 minute session. The first two minutes were not included for data analysis because mice were exploring new environment. The total number and the sequence of arm entries in the last 6 minutes were recorded and analyzed. Arm entry was defined as the hind paws of the mice had been completely placed in the arm. Analysis was done blind. The percentage of alternation is the number of triads containing entries into all three arms divided by the maximum possible alternations (the total number of arms entered minus 2)×100.\nA behavioral analysis was conducted to test the effect of enhanced tonic inhibition on the cognitive function of 5xFAD animals. […] Therefore, it was concluded that the abnormal tonic inhibition in DG is an important contributing factor toward the learning and memory deficit in AD."}, "α5-GABAA-Rs": {"molecular_target": "T4, α5-GABAA-Rs (Mus musculus, UniProt P22723+Q8BHJ7)", "T4 construct": "from tissue; host or cells: mouse hippocampal slices; dentate granule cells and CA1 pyramidal neurons", "T4 sequence (P63080 26-473)": "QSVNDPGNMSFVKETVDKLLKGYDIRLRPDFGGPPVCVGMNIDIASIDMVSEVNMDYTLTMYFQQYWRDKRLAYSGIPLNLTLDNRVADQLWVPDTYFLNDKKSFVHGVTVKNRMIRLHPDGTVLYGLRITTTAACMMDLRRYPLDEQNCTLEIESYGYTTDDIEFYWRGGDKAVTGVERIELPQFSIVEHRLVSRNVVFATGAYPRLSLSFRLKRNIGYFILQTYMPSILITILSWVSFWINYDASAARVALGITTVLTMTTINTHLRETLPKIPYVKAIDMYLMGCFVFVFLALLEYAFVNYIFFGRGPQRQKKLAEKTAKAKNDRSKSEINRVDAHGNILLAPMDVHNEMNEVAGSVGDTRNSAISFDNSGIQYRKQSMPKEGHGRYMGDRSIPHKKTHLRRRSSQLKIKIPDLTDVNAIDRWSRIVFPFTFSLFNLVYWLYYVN", "T4 sequence (Q8BHJ7 32-463)": "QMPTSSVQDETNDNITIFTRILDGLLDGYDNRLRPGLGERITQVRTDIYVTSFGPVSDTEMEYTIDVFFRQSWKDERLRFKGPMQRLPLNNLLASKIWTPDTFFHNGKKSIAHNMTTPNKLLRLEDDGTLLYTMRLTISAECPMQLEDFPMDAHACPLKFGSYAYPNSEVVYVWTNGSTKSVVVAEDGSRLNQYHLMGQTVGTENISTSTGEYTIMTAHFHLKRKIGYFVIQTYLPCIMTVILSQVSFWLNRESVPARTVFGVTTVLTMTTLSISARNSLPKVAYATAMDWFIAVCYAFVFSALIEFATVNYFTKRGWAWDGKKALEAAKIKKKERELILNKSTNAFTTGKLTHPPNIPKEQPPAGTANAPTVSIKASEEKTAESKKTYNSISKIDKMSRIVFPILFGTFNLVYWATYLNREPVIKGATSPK", "T4 sequence (P22723 39-474)": "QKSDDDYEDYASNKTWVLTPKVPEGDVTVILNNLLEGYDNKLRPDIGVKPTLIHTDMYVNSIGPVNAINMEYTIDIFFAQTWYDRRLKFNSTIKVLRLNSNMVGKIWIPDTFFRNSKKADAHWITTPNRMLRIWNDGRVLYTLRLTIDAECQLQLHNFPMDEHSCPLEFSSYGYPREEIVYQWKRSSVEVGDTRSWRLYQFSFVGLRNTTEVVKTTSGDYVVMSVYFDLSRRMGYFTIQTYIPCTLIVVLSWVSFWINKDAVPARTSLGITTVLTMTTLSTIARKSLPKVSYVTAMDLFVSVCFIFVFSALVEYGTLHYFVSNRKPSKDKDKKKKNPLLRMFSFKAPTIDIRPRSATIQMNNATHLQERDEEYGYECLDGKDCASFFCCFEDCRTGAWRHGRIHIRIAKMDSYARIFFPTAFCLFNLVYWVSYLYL", "assay": "Tonic current mediated by α5-GABAA-Rs, whole-cell patch clamp in hippocampal slices", "assay_type": "cell-based", "description": "Mice were anesthetized with 2.5% Avertin. After decapitation, brains were rapidly dissected out and placed in ice-cold cutting solution containing: 79 mM NaCl, 80 mM sucrose, 26 mM NaHCO3, 10 mM glucose, 2.5 mM KCl, 1.25 mM NaH2PO4, 7 mM MgSO4, and 0.5 mM CaCl2 for tonic current recordings. The cutting solution for field EPSP recordings contained: 230 mM sucrose, 26 mM NaHCO3, 20 mM glucose, 2.5 mM KCl, 1.25 mM NaH2PO4, 10 mM MgSO4, and 0.5 mM CaCl2. Both solutions were bubbled with 95% O2/5% CO2. Hippocampal slices were cut at 350 μm with a vibratome (VT1200S, Leica, Germany) and transferred to a transitional chamber containing one half of cutting solution and one half of standard artificial cerebrospinal fluid (ACSF). The ACSF was composed of: 125.0 mM NaCl, 2.5 mM KCl, 1.3 mM MgSO4, 26.0 mM NaHCO3, 1.25 mM NaH2PO4, 2.0 mM CaCl2, and mM 10 glucose (290-300 mOsmol; gassed with 95% O2/5% CO2, pH ˜7.4). Slices were then incubated in ACSF at 32° C. for 30 minutes to recover. Subsequently, slices were maintained at room temperature for another 30 minutes before recording. Individual slices were then transferred to a submerged recording chamber where they were continuously perfused (2-3 mL/minute) with ACSF saturated by 95% O2/5% CO2 at 32° C.\nWhole-cell voltage clamp recordings were performed on dentate gyrus granule cells using a pipette solution containing: 135 mM CsCl, 5 mM Na-phosphocreatine, 10 mM HEPES, 5 mM EGTA, 4 mM MgATP, 5 mM QX-314, and 0.5 mM Na2GTP (pH 7.3 adjusted with CsOH, 280-290 mOsm/L). Pipette resistance was 2-5 MΩ, and series resistance was typically 20-40 MΩ. To record tonic GABA current, 10 μM CNQX and 50 μM DL-APV were added into the ACSF to block glutamate receptors. In some experiments, 5 μM GABA also was added into the ACSF to reveal larger tonic GABA current and increase the signal-to-noise ratio. […] The membrane potential was held at −70 mV. Data was acquired using pClamp 9 software (Molecular Devices; sampled at 10 kHz and filtered at 1 kHz), and analyzed with Clampfit 9.0 software (Molecular Devices). Field excitatory postsynaptic potentials (fEPSPs) were recorded with glass electrodes filled with 1 M NaCl and 25 mM HEPES (pH 7.3), and were evoked every 20 seconds with a parallel bipolar tungsten electrode (MicroProbes, USA), which was placed at medial perforant path in the dentate gyrus. Three evoked responses were averaged to obtain a data point. […]\nThe following was performed to investigate which subtype of GABAA-Rs mediate the enhanced tonic GABA current in AD dentate granule cells. […] Quantitatively, the tonic current blocked by L-655,708 in AD dentate granule cells was more than doubled that in WT animals (FIG. 5, panel e; WT, 35.4±6.3 pA, n=12; AD, 98.7±12.9 pA, n=9; p<0.001). […]"}, "δ-GABAA-Rs": {"molecular_target": "T5, δ-GABAA-Rs (Mus musculus, UniProt P22933+P63137+Q9D6F4)", "T5 construct": "from tissue; host or cells: mouse hippocampal slices, dentate granule cells", "T5 sequence (P22933 17-449 limits assumed)": "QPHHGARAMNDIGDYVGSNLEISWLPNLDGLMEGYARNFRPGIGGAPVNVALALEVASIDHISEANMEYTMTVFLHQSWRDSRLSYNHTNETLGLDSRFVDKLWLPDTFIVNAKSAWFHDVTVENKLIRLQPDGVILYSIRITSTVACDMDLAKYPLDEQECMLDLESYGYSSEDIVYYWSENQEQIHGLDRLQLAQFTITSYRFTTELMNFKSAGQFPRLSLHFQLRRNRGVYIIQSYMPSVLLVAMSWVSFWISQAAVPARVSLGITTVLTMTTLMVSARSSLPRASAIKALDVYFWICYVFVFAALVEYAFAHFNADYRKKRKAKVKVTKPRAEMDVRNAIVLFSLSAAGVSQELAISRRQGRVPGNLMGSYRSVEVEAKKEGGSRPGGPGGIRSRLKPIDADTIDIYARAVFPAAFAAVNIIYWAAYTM", "T5 sequence (Q9D6F4 36-552)": "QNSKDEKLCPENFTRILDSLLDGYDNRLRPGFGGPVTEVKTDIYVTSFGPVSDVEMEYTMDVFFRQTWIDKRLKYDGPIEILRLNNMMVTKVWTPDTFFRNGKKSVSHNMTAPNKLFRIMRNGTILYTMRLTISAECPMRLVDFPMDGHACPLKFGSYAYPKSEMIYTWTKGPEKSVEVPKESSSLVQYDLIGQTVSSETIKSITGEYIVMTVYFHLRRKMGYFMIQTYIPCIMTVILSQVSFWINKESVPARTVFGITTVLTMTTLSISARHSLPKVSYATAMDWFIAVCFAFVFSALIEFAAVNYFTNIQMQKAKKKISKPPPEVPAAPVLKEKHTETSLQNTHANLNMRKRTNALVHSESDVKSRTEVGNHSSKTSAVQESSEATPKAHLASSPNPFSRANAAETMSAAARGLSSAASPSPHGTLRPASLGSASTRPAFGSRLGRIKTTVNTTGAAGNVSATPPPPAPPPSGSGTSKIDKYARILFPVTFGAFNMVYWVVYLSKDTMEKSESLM", "T5 sequence (P63137 25-474 limits assumed)": "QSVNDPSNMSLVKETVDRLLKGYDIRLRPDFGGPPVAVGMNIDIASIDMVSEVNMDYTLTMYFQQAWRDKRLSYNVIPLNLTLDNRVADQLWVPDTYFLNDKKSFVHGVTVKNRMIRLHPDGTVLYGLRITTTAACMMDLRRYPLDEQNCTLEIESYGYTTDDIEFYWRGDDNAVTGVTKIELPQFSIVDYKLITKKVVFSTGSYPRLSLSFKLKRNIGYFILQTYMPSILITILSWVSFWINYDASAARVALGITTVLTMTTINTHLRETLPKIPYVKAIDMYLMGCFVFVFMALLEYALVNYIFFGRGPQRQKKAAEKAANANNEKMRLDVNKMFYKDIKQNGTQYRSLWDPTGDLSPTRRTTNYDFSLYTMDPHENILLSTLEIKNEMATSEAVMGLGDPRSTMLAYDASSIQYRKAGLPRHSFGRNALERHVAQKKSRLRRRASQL", "assay": "THIP-induced tonic current in dentate granule cells of hippocampal slices", "assay_type": "cell-based", "conditions": "2 μM, n=8", "description": "as §2, §1"}}}
{"smiles": "COc1ccc(C2(O)CCN(CCCn3c4ccccc4c4ccccc43)CC2)cc1", "note": "[NNC 05-2045, 1-(3-(9H-carbazol-9-yl)-1-propyl)-4-(4-methoxyphenyl)-4-piperidinol]", "values": [{"measurement": "Ki", "setting": "human GAT-2 polypeptide", "value": "> 10", "unit": "µM"}, {"measurement": "Ki", "setting": "human GAT-3 polypeptide", "value": "< 10", "unit": "µM"}, {"measurement": "Ki", "setting": "human GAT-1 polypeptide", "value": "> 20", "unit": "µM"}]}
{"smiles": "Cl.O=C(O)C1=CCCN(CCON=C(c2ccccc2)c2ccccc2)C1", "note": "[NO-711, 1-[2-[[(Diphenylmethylene)imino]oxy]ethyl]-1,2,5,6-tetrahydro-3-pyridinecarboxylic acid hydrochloride hydrochloride]", "values": [{"measurement": "tonic currents revealed by NO-711, WT vs. 5xFAD", "setting": "[1]", "value": "no difference"}]}
{"smiles": "CCOC(=O)c1ncn2c1C1CCCN1C(=O)c1cc(OC)ccc1-2", "note": "[L-655,708, 11,12,13,13a-tetrahydro-7-methoxy-9-oxo-9H-imidazo[1,5-a]pyrrolo[2,1-c][1,4]benzodiaz-epine-1-carboxylic acid, ethyl ester]", "values": [{"measurement": "effect on LTP impairment", "setting": "LTP in DG", "value": "rescued the LTP impairment"}, {"measurement": "effect on memory deficit (spontaneous alternation)", "setting": "5xFAD mice", "value": "rescued the memory deficit"}, {"measurement": "block of tonic current", "setting": "α5-GABAA-Rs; 100 nM, AD (5xFAD) dentate granule cells", "value": "majority of tonic current in AD dentate granule cells was blocked"}, {"measurement": "tonic current blocked by L-655,708", "setting": "α5-GABAA-Rs; AD (5xFAD) dentate granule cells, n=9", "value": "98.7±12.9", "unit": "pA"}, {"measurement": "proportion of tonic current blocked, WT vs AD", "setting": "α5-GABAA-Rs; CA1 neurons", "value": "similar"}, {"measurement": "tonic current blocked by L-655,708", "setting": "α5-GABAA-Rs; WT dentate granule cells, n=12", "value": "35.4±6.3", "unit": "pA"}]}
{"smiles": "Oc1noc2c1CCNC2", "note": "[THIP, 4,5,6,7-tetrahydroisoxazolo[5,4-c]pyridin-3-ol]", "values": [{"measurement": "THIP-induced tonic current", "setting": "δ-GABAA-Rs; AD (5xFAD) dentate granule cells", "value": "60.7±10.4", "unit": "pA"}, {"measurement": "THIP-induced tonic current", "setting": "δ-GABAA-Rs; WT dentate granule cells", "value": "65.2±6.6", "unit": "pA"}]}
